Results taken from patent publication US8343912B2, “Antibiotic compositions for the treatment of gram negative infections” (priority 2008, dated 2013).
Converted amounts (≈) assume the structure as drawn. Numbered stars: 1 amine (or outer) side, 2 acyl side, 3 side chain; on linkers, the order of the positions; unused ones are H or OH. Bridge positions count the residues as written; N and C are the ends. Square brackets hold non-standard residues; d marks the D form. Peptide text beside a SMILES is read from it. * marks the point of attachment. Octanoyl(6-Me) = CCC(C)CCCCC(=O)*; NH(2-ClPh) = Clc1ccccc1N*; Dab = NCC[CH](N)C(=O)O; CO = O=C([*:1])[*:2]

Columns and labels:
S. maltophilia = assay: MIC90, broth microdilution, panel of Gram negative clinical isolates; type: cell-based, Stenotrophomonas maltophilia; details: 25 strains
Protocol: (§1) To evaluate the potency and spectrum of compounds of Formula (I), (i.e., Compounds designated 5 and 6), a study was conducted that put together a panel of 455 Gram negative strains, which included multi-drug resistant clinical isolates selected from various surveillance programs. Table 3A lists the strains that were included in the study and the activity of Compound 5, Compound 6, and colistin (polymyxin E, abbreviated PME). Strains with acquired resistance to colistin and/or carbapenems and/or broad spectrum cephalosporins were pre-selected and included in all organism groups evaluated.
(§2) MIC testing was performed according to Clinical and Laboratory Standards Institute (CLSI) M7-A7 (2006) broth microdilution methods. Unless otherwise indicated, MIC values are provided in units of micrograms per milliliter.
(§3) One day prior to testing, individual colonies were isolated by streaking onto rich, non-selective Tryptic Soy agar with 5% lysed sheeps blood (TSAB) with incubation at 35-37° C. for 18-24 hours.
(§4) Cultures were prepared by touching 3-5 colonies into 3 mL of Cation adjusted Mueller Hinton Broth (caMHB) in a 14 mL tube (CaMHB was prepared and sterilized according to manufacturer's specifications). Cultures were grown at 37° C. 200 rpm for approximately four hours prior to density adjustment for addition to the MIC assay.
(§5) OD600 of growing cultures was measured and adjusted to approximately 10^5 colony forming units per mL (CFU/mL) in caMHB for MIC inoculation (approximately OD600 0.001).
(§6) Diluted cultures were used to inoculate 50 μL per well in broth microdilution assays (final volume 100 μl per well; compounds were prepared in two-fold dilutions).
(§7) Plates were incubated 16-20 hrs at 37° C., with shaking at 200 rpm.
(§8) OD600 was determined for all wells. Growth was defined as OD600>0.1. MICs were defined as the lowest concentration producing no visible turbidity (OD600<0.1).

[1] = Cell culture cytotoxicity assay (ATP bioluminescence, LLC-PK1); type: cell-based, rat; details: rat; read-out: EC50, rat kidney proximal tubule cell culture cytotoxicity assay
Protocol: Day 1: 1×10^5 to 2×10^5 cellswere inoculated (Cell line: LLC-PK1) per flask, containing 4 mL/T25 flask of medium DMEM-F12 (50/50) media supplemented with 10% FBS (Fetal Bovine Serum). The cells were then incubated at 37° C., 5% CO2, 80% RH.
Day 4: The cell cultures were examined to determine 80% confluency. To trypsinize of the 80% confluent flasks, 4 mL of DMEM-F12-10% FBS media was prepared per flask. The media was aspirated from the flask and 5 mL of Versene was added to rinse the flask. The Versene was aspirated and 2 mL of triple Express solution (trypsin solution) was added. The cells were incubated for 5 min at room temperature and examined via microscopy for the rounding of the cells and their detachment. To speed up the reaction, the flask can be incubated at 37° C. for 3 minutes. 4 mL of media (DMEM-F12-10%FBS) was added to stop the reaction. Using a 5 mL pipette, the completed reaction was pipetted up and down to ensure that the cells were properly detached from the flask and from each others. The cell number was counted using a hemocytometer slide. 100 μL of cell suspension was transferred to a tube and 100 μL of Trypan Blue was added. Inoculum for 96 well is 10,000 cells per well. For one 96 well plate, 26.3 μL×110 well=2893 μL total. 2.9 mL of cell suspension was mixed with 8.1 mL of media DMEM-F12-10% FBS and 100 μL was distributed to each well using a multichannel pipetter. The plate was then Incubated for 24 h at 37° C.
Day 5: DMEM-F12 (no FBS) medium was dispensed into tubes with the test article to achieve final concentrations of […]. The 96 well plate was taken off the incubator and media was removed from each well using multichannel pipetter. 80 μL of serially diluted compounds of Formula (I) was added to each well. Every set of concentration was done in triplicate. Media and positive controls were added to each plate and the plates were incubated for 24 hours at 37° C.
Day 6: The plates were taken from the incubator, the media was removed from each well, and 100 μL of fresh media DMEM-F12 (this is equivalent to a rinse and the media can be replaced with PBS) was added. The media is then removed and 80 μL of cell lysis solution is added. After 5 minutes, 80 μL of sterile filtered high quality water was added to each well. Using a white or black 96 well reaction plate, 80 μL of 25× diluted ATP mix reagent (Sigma Bioluminescent Somatic Cell Assay Kit [cat #FL-ASC]) was added into one column. 80 μL of diluted ATP standards (dilutions used: 250, 500, 1000, 2000 and 4000) was added and the plate was read immediately in the topcount with a 2 second read time. In another white or black 96 well reaction plate, 80 μL of 25× diluted ATP mix reagent (plate A) was added and 80 μL of lysis-water solution was transferred to each column of plate A. The plate was then read immediately in the topcount with a 2 second read time. This process was repeated for next consecutive plate and the EC50 for certain compounds of Formula I were calculated and provided in Table 4.

E. coli = assay: MIC90, broth microdilution, panel of Gram negative clinical isolates; type: cell-based, Escherichia coli; details: 80 strains; some strains multi-drug resistant
Protocol: as §1, §2, §3, §4, §5, §6, §7, §8

P. aeruginosa #44 = assay: MIC, broth microdilution; type: cell-based, Pseudomonas aeruginosa; details: for MIC against P. aeruginosa #44: Table 5, range of repeated tests
Protocol: as §2, §3, §4, §5, §6, §7, §8
P. aeruginosa #44 or K. pneumoniae #21 were grown in cation adjusted Mueller Hinton Broth (caMHB) (catalog #B12322; Fisher Scientific, Pittsburgh, Pa.) at 37° C. MIC testing was performed according to Clinical and Laboratory Standards Institute [CLSI, formerly National Committee for Clinical Laboratory Standards (NCCLS), Wayne, Pa.] guidelines for broth microdilution.
MIC testing was performed according to CLSI (formerly NCCLS) guidelines for broth microdilution.

SMILES	fraction unbound (Serum protein binding)	MIC90 S. maltophilia (S. maltophilia) [micrograms/mL]	EC50 at 24 h [1] [µg/mL]	MIC90 E. coli (E. coli) [micrograms/mL]	MIC P. aeruginosa 44 (P. aeruginosa #44; Table 3B) [micrograms/mL]	MIC against P. aeruginosa #44 (P. aeruginosa #44)
CC(C)C[C@@H]1NC(=O)[C@@H](Cc2ccccc2)NC(=O)[C@H](CCN)NC(=O)[C@@H](NC(=O)[C@H](CCN)NC(=O)[C@@H](NC(=O)[C@H](CCN)NC(=O)Nc2ccccc2Cl)[C@@H](C)O)CCNC(=O)[C@H]([C@@H](C)O)NC(=O)[C@H](CCN)NC(=O)[C@H](CCN)NC1=O [Compound 5, (S)-4-amino-N-((2S,3R)-1-((S)-4-amino-1-oxo-1-((3S,6S,9S,12S,15R,18S,21S)-6,9,18-tris(2-aminoethyl)-15-benzyl-3-((R)-1-hydroxyethyl)-12-isobutyl-2,5,8,11,14,17,20-heptaoxo-1,4,7,10,13,16,19-heptaazacyclotricosan-21-ylamino)butan-2-ylamino)-3-hydroxy-1-oxobutan-2-yl)-2-(3-(2-chlorophenyl)ureido)butanamide] ({NH(2-ClPh)-CO}-[Dab]T[Dab][Dab][Dab][dF]L[Dab][Dab]T; lactam 4-C)	~0.7	>16	> 1000	2	1	1-2 micrograms/ml
CCC(C)CCCCC(=O)NC(CCN)C(=O)NC(C(=O)NC(CCN)C(=O)NC1CCNC(=O)C(C(C)O)NC(=O)C(CCN)NC(=O)C(CCN)NC(=O)C(CC(C)C)NC(=O)C(Cc2ccccc2)NC(=O)C(CCN)NC1=O)C(C)O (centres unmarked) [Polymyxin B, polymyxin B, reference compound] ({Octanoyl(6-Me)}-[Dab]T[Dab][Dab][Dab]FL[Dab][Dab]T; lactam 4-C; configuration not given here)	~0.44	8	318 (≈ 264 µM)	2	–	1-2 micrograms/ml
